According to US4933350A, “Pyrroloisoquinolines useful as hypercholesterolemic and hyperlipoprotienimic agents” (May & Baker Limited, priority 1987, dated 1990):

Tests used:
[1] = biological target: T1, rat hepatic microsomal HMG CoA reductase (Rattus norvegicus, UniProt P51639); assay: inhibition in rat hepatic microsomal HMG CoA reductase activity in vitro (Table I); type: biochemical; settings: for inhibition at 0.0091 µg/mL: 0.0091 micrograms/ml; for inhibition at 0.0274 µg/mL: 0.0274 micrograms/ml; for inhibition at 0.082 µg/mL: 0.082 micrograms/ml; for inhibition at 0.24 µg/mL: 0.24 micrograms/ml; for inhibition at 0.74 µg/mL: 0.74 micrograms/ml; for inhibition at 2.22 µg/mL: 2.22 micrograms/ml; for inhibition at 0.25 µg/mL: 0.25 micrograms/ml; for inhibition at 0.2 µg/mL: 0.2 micrograms/ml; for inhibition at 20 µg/mL: 20.0 micrograms/ml; for inhibition at 6.7 µg/mL: 6.7 micrograms/ml; for inhibition at 6.66 µg/mL: 6.66 micrograms/ml
T1 construct: rat hepatic microsomal HMG CoA reductase activity in vitro; from tissue; host or cells: rat liver microsomes
T1 sequence (P51639 1-887): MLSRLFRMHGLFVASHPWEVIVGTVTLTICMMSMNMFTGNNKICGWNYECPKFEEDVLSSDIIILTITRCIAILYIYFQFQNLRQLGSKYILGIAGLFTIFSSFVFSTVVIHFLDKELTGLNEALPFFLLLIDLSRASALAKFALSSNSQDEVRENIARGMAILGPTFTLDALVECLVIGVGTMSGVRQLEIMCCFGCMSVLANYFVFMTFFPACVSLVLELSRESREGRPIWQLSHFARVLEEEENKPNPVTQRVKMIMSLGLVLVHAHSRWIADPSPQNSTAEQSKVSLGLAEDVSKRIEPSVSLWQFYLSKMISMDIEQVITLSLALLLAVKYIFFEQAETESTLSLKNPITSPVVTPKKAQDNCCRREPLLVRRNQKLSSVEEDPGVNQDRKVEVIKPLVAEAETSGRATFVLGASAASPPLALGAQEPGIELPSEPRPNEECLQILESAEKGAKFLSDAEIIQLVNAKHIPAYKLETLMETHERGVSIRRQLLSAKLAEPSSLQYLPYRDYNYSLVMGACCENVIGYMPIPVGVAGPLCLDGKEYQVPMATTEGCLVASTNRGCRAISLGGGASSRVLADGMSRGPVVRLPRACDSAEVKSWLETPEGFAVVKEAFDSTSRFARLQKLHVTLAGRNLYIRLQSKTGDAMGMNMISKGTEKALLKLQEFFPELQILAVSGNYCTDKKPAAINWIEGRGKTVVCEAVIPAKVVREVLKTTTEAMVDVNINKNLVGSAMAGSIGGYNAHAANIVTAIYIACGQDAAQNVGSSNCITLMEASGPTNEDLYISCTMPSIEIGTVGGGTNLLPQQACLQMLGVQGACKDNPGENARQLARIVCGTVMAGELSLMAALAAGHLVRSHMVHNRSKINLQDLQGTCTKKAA

cholesterol biosynthesis = assay: inhibition in cholesterol biosynthesis, in vivo tests in rats, oral (Table II)
From the text: In the table the doses are expressed in mg/kg animal body weight.

In the case of CC(C)c1c(/C=C/[C@@H](O)C[C@@H](O)CC(=O)O)c(-c2ccc(F)cc2)c2c3ccccc3ccn12 (relative stereo) [OA, sodium erythro-(E)-3,5-dihydroxy-7-{3-isopropyl-1-(4-fluorophenyl)pyrrolo[2,1-a]isoquinolin-2-yl}-hept-6-enoate], the inhibition at 0.00304 µg/mL ([1]; 0.00304 micrograms/ml) is reported as 37%, the inhibition at 0.0091 µg/mL [1] is reported as 43% and the inhibition at 0.0274 µg/mL [1] is reported as 51%. It also gave an inhibition at 0.082 µg/mL [1] of 63%, an inhibition at 0.24 µg/mL [1] of 74% and an inhibition at 0.74 µg/mL [1] of 87%. The inhibition at 2.22 µg/mL [1] was 95%.

Compound CC(C)c1c(/C=C/[C@@H](O)C[C@H](O)CC(=O)O)c(-c2ccc(F)cc2)c2c3ccccc3ccn12 (relative stereo) [OB, sodium threo-(E)-3,5-dihydroxy-7-{3-isopropyl-1-(4-fluorophenyl)pyrrolo[2,1-a]isoquinolin-2-yl}-hept-6-enoate] has an inhibition at 0.0274 µg/mL [1] of 21%, an inhibition at 0.082 µg/mL [1] of 29% and an inhibition at 0.25 µg/mL [1] of 38%. The inhibition at 0.74 µg/mL [1] was 53% and the inhibition at 2.22 µg/mL [1] was 70%.

CC(C)c1c(/C=C/C(O)CC(O)CC(=O)[O-])c(-c2ccccc2)c2c3ccccc3ccn12.[Na+] (centres unmarked) [Compound B, sodium (E)-3,5-dihydroxy-7-(3-isopropyl-1-phenylpyrrolo[2,1-a]isoquinolin-2-yl)hept-6-enoate] gave an inhibition at 0.025 µg/mL ([1]; 0.025 micrograms/ml) of 16%, an inhibition at 0.1 µg/mL ([1]; 0.1 micrograms/ml) of 28% and an inhibition at 0.2 µg/mL [1] of 43%. It also gave an inhibition at 0.4 µg/mL ([1]; 0.4 micrograms/ml) of 44%, an inhibition at 1.6 µg/mL ([1]; 1.6 micrograms/ml) of 72% and an inhibition at 2 µg/mL ([1]; 2.0 micrograms/ml) of 81%. For the same compound, the inhibition at 6.4 µg/mL ([1]; 6.4 micrograms/ml) was 91%, the inhibition at 20 µg/mL [1] was 98% and the “% Inhibition in cholesterol biosynthesis” value (cholesterol biosynthesis; oral dose 1.11 mg/kg) was 67%. The “% Inhibition in cholesterol biosynthesis” value (cholesterol biosynthesis; oral dose 3.33 mg/kg) was 77% and the “% Inhibition in cholesterol biosynthesis” value (cholesterol biosynthesis; oral dose 10.0 mg/kg) was 91%.

Compound CC(C)c1c(/C=C/C(=O)CC(O)CC(=O)O)c(-c2ccccc2)c2c3ccccc3ccn12 (centres unmarked) [Compound E, (E)-3-hydroxy-7-(3-isopropyl-1-phenylpyrrolo[2,1-a]isoquinolin-2-yl)-5-oxohept-6-enoic acid] has an inhibition at 2.2 µg/mL ([1]; 2.2 micrograms/ml) of 50%, an inhibition at 6.7 µg/mL [1] of 71% and an inhibition at 20 µg/mL [1] of 90%.

For CC(C)c1c(CCC2CC(O)CC(=O)O2)c(-c2ccccc2)c2c3ccccc3ccn12 (centres unmarked) [Compound G, 4-hydroxy-6-[2-(3-isopropyl-1-phenylpyrrolo[2,1-a]isoquinolin-2-yl)ethyl]-3,4,5,6-tetrahydro-2H-pyran-2-one], the inhibition at 6.7 µg/mL [1] was 38% and the inhibition at 20 µg/mL [1] was 44%.

Work on CCOC(=O)CC(O)CC(O)/C=C/c1c(-c2ccccc2)c2c3ccccc3ccn2c1C (centres unmarked) [Compound H, ethyl (E)-3,5-dihydroxy-7-(3-methyl-1-phenylpyrrolo[2,1-a]-isoquinolin-2-yl)hept-6-enoate] yielded an inhibition at 0.24 µg/mL [1] of 26%, an inhibition at 0.74 µg/mL [1] of 22% and an inhibition at 2.22 µg/mL [1] of 33%. For the same compound, the inhibition at 6.66 µg/mL [1] was 54% and the inhibition at 20 µg/mL [1] was 70%.

In the case of Cc1c(/C=C/C(O)CC(O)CC(=O)O)c(-c2ccccc2)c2c3ccccc3ccn12 (centres unmarked) [Compound I, sodium (E)-3,5-dihydroxy-7-(3-methyl-1-phenylpyrrolo[2,1-a]isoquinolin-2-yl)hept-6-enoate], the inhibition at 0.082 µg/mL [1] is reported as 44%, the inhibition at 0.25 µg/mL [1] is reported as 39% and the inhibition at 0.74 µg/mL [1] is reported as 35%. It also gave an inhibition at 2.22 µg/mL [1] of 46%, an inhibition at 6.66 µg/mL [1] of 68% and an inhibition at 20 µg/mL [1] of 85%.

CCc1c(/C=C/C(O)CC(O)CC(=O)O)c(-c2ccc(F)cc2)c2c3ccccc3ccn12 (centres unmarked) [Compound K, sodium (E)-3,5-dihydroxy-7-{3-ethyl-1-(4-fluorophenyl)pyrrolo-[2,1-a]isoquinolin-2-yl}hept-6-enoate] gave an inhibition at 0.0274 µg/mL [1] of 27%, an inhibition at 0.082 µg/mL [1] of 33% and an inhibition at 0.24 µg/mL [1] of 46%. For the same compound, the inhibition at 0.74 µg/mL [1] was 68%, the inhibition at 2.22 µg/mL [1] was 86% and the inhibition at 6.66 µg/mL [1] was 95%.

CC(C)c1c(/C=C/C(O)CC(O)CC(=O)O)c(-c2ccc(F)cc2)n2ccc3ccccc3c12 (centres unmarked) [Compound M, sodium (E)-3,5-dihydroxy-7-{1-isopropyl-3-(4-fluorophenyl)pyrrolo[2,1-a]isoquinolin-2-yl}hept-6-enoate] gave an inhibition at 0.0025 µg/mL ([1]; 0.0025 micrograms/ml) of 33%, an inhibition at 0.0074 µg/mL ([1]; 0.0074 micrograms/ml) of 46% and an inhibition at 0.022 µg/mL ([1]; 0.022 micrograms/ml) of 63%. For the same compound, the inhibition at 0.066 µg/mL ([1]; 0.066 micrograms/ml) was 69%, the inhibition at 0.2 µg/mL [1] was 74% and the inhibition at 0.22 µg/mL ([1]; 0.22 micrograms/ml) was 65%. It also gave an inhibition at 0.74 µg/mL [1] of 78%, an inhibition at 2.22 µg/mL [1] of 90% and an inhibition at 6.66 µg/mL [1] of 96%. The inhibition at 20 µg/mL [1] was 98%.

Work on CC(C)c1c(/C=C/C(=O)CC(O)CC(=O)O)c(-c2ccc(F)cc2)c2c3ccccc3ccn12 (centres unmarked) [Compound Q, sodium (E)-3-hydroxy-7-{3-isopropyl-1-(4-fluorophenyl)pyrrolo-[2,1-a]isoquinolin-2-yl}-5-oxohept-6-enoate] yielded an inhibition at 0.082 µg/mL [1] of 8%, an inhibition at 0.24 µg/mL [1] of 22% and an inhibition at 0.74 µg/mL [1] of 45%. The inhibition at 2.22 µg/mL [1] was 70% and the inhibition at 6.66 µg/mL [1] was 89%.

CCOC(=O)CC(O)CC(O)/C=C/c1c(-c2ccc(F)cc2)c2c3ccccc3ccn2c1C(C)C (centres unmarked) [N, ethyl (E)-3,5-dihydroxy-7-{3-isopropyl-1-(4-fluorophenyl)pyrrolo[2,1-a]isoquinolin-2-yl}hept-6-enoate] was tested, and the inhibition at 0.0091 µg/mL [1] was 44%, the inhibition at 0.0274 µg/mL [1] was 55% and the inhibition at 0.082 µg/mL [1] was 61%. For the same compound, the inhibition at 0.25 µg/mL [1] was 74%, the inhibition at 0.74 µg/mL [1] was 87% and the inhibition at 2.22 µg/mL [1] was 95%.

Compound CC(C)c1c(/C=C/C(O)CC(O)CC(=O)O)c(-c2ccc(F)cc2)c2c3ccccc3ccn12 (centres unmarked) [O, sodium (E)-3,5-dihydroxy-7-{3-isopropyl-1-(4-fluorophenyl)pyrrolo[2,1-a]isoquinolin-2-yl}-hept-6-enoate] has an inhibition at 0.24 µg/mL [1] of 69%, an inhibition at 0.74 µg/mL [1] of 81% and an inhibition at 2.22 µg/mL [1] of 92%. The inhibition at 6.66 µg/mL [1] was 97% and the inhibition at 20 µg/mL [1] was 99%.
